Laboratory results taken from patent EP0527889B1, “QUINOLIZINONE TYPE COMPOUNDS” (priority 1990, dated 1991).
Structures can show the parent of a compound that is named as a salt.

Assays:
Experiment in all cases: In vitro antibacterial activity, MIC by agar dilution
Type in all cases: cell-based
Conditions in all cases: BHI agar, 35-37°C, 20-24 hours, unit assumed
[1] = tested on: Acinetobacter calcoaceticus CMX 669
Summary of the method: (§1)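 Using a Steers replicator, about 10^4 CFU of each diluted organism were spotted on agar with test compound. After ~20–24 h at 35–37°C, MIC was taken as the lowest concentration without growth compared with compound-free BHI agar; ciprofloxacin served as reference antibiotic.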

[2] = tested on: Enterobacter aerogenes ATCC 13048
Summary of the method: as §1

[3] = tested on: Enterococcus faecium ATCC 8043
Summary of the method: as §1

Escherichia coli DC-2 = tested on: Escherichia coli DC-2
Summary of the method: as §1

Escherichia coli H560 = tested on: Escherichia coli H560
Summary of the method: as §1

Escherichia coli JUHL = tested on: Escherichia coli JUHL
Summary of the method: as §1

Escherichia coli KNK 437 = tested on: Escherichia coli KNK 437
Summary of the method: as §1

Escherichia coli SS = tested on: Escherichia coli SS
Summary of the method: as §1

[4] = tested on: Klebsiella pneumoniae ATCC 8045
Summary of the method: as §1

[5] = tested on: Micrococcus luteus ATCC 4698
Summary of the method: as §1

[6] = tested on: Micrococcus luteus ATCC 9341
Summary of the method: as §1

[7] = tested on: Providencia stuartii CMX 640
Summary of the method: as §1

[8] = tested on: Pseudomonas aeruginosa 2862
Summary of the method: as §1

[9] = tested on: Pseudomonas aeruginosa 5263
Summary of the method: as §1

[10] = tested on: Pseudomonas aeruginosa A5007
Summary of the method: as §1

[11] = tested on: Pseudomonas aeruginosa BMH10
Summary of the method: as §1

[12] = tested on: Pseudomonas aeruginosa K799/61
Summary of the method: as §1

[13] = tested on: Pseudomonas aeruginosa K799/WT
Summary of the method: as §1

Pseudomonas cepacia 296I = tested on: Pseudomonas cepacia 296I
Summary of the method: as §1

[14] = tested on: Staphylococcus aureus 1775
Summary of the method: as §1

[15] = tested on: Staphylococcus aureus 642A
Summary of the method: as §1

[16] = tested on: Staphylococcus aureus A-5278
Summary of the method: as §1

[17] = tested on: Staphylococcus aureus A5177
Summary of the method: as §1

[18] = tested on: Staphylococcus aureus ATCC 6538P
Summary of the method: as §1

[19] = tested on: Staphylococcus aureus CMX 553
Summary of the method: as §1

[20] = tested on: Staphylococcus aureus NCTC 10649
Summary of the method: as §1

[21] = tested on: Staphylococcus epidermidis 3519
Summary of the method: as §1

[22] = tested on: Streptococcus agalactaciae CMX 508
Summary of the method: as §1

[23] = tested on: Streptococcus bovis A5169
Summary of the method: as §1

[24] = tested on: Streptococcus pyrogenes 2548 INDUC
Summary of the method: as §1

[25] = tested on: Streptococcus pyrogenes CONST
Summary of the method: as §1

[26] = tested on: Streptococcus pyrogenes EES61
Summary of the method: as §1

Compound | MIC values [1] [µg/mL] | MIC values [2] [µg/mL] | MIC values [3] [µg/mL] | MIC values (Escherichia coli DC-2) [µg/mL] | MIC values (Escherichia coli H560) [µg/mL] | MIC values (Escherichia coli JUHL) [µg/mL] | MIC values (Escherichia coli KNK 437) [µg/mL] | MIC values (Escherichia coli SS) [µg/mL] | MIC values [4] [µg/mL] | MIC values [5] [µg/mL] | MIC values [6] [µg/mL] | MIC values [7] [µg/mL] | MIC values [8] [µg/mL] | MIC values [9] [µg/mL] | MIC values [10] [µg/mL] | MIC values [11] [µg/mL] | MIC values [12] [µg/mL] | MIC values [13] [µg/mL] | MIC values (Pseudomonas cepacia 296I) [µg/mL] | MIC values [14] [µg/mL] | further results
NC1CCN(c2nc3c(-c4c(F)c(F)c(F)c(F)c4F)cc(C(=O)O)c(=O)n3cc2F)C1 (stereo not shown) [Example 172, 2-(3-Aminopyrrolidin-1-yl)-3-fluoro-9-(2,3,4,5,6-pentafluorophenyl)-6H-6-oxopyrido[1,2-a]pyrimidine-7-carboxylic acid hydrochloride salt] | 25 | 6.2 | > 100 | > 100 | 6.2 | 6.2 | > 100 | 0.39 | 3.1 | > 100 | > 100 | > 100 | > 100 | > 100 | 50 | 50 | 6.2 | 100 | > 100 | > 100 | MIC values [15]: 100 µg/mL; MIC values [16]: 50 µg/mL; MIC values [17]: 100 µg/mL; MIC values [18]: 50 µg/mL; MIC values [19]: > 100 µg/mL; MIC values [20]: 50 µg/mL; MIC values [21]: 50 µg/mL; MIC values [22]: > 100 µg/mL; MIC values [23]: > 100 µg/mL; MIC values [24]: > 100 µg/mL; MIC values [25]: > 100 µg/mL; MIC values [26]: > 100 µg/mL
C[C@H](N)C(=O)N[C@@H](C)C(=O)N[C@H]1C[C@H](C)N(c2nc3c(-c4ccc(F)cc4F)cc(C(=O)O)c(=O)n3cc2F)C1 [Example 173, 2-((2S, 4S)-4-(N-(S)-Alanyl-(S)-alanyl)amino-2-methylpyrrolidin-1-yl)-9-(2,4-difluorophenyl)-3-fluoro-6H-6-oxopyrido[1,2-a]pyrimidine-7-carboxylic acid hydrochloride] | 25 | 25 | 50 | > 100 | 3.1 | 6.2 | 100 | 0.1 | 3.1 | 100 | > 100 | > 100 | > 100 | > 100 | 50 | 50 | 3.1 | 100 | > 100 | > 100 | MIC values [15]: 12.5 µg/mL; MIC values [16]: 6.2 µg/mL; MIC values [17]: 6.2 µg/mL; MIC values [18]: 1.56 µg/mL; MIC values [19]: 12.5 µg/mL; MIC values [20]: 1.56 µg/mL; MIC values [21]: 6.2 µg/mL; MIC values [22]: 12.5 µg/mL; MIC values [23]: 25 µg/mL; MIC values [24]: 6.2 µg/mL; MIC values [25]: 12.5 µg/mL; MIC values [26]: 12.5 µg/mL
